From patent US8961933B2, “Process for the preparation of aqueous solutions of hyperpolarized molecules” (Bracco Imaging S.p.A., priority 2008, dated 2015)

Experiments:
Solubility in water = format: physicochemical; conditions: compared with alkyne A
Description: The symmetrical alkyne A, whose formula is reported below, was synthesized by transesterification of the acetylene bis-carboxylic acid bismethyl ester with diethyleneglycol monomethyl ether, in the presence of H2SO4 as catalyst.

[1] = Phase-transfer extraction of the hyperpolarized product into water: 13C signal enhancement and amount transferred; format: physicochemical
Description: After the field cycling application, the tube was quickly opened and 0.4 mL of degassed D2O were added; the tube was shaken vigorously for three seconds and then let stand for five seconds, during which phase separation occurred. The water solution was taken by a syringe and transferred into a tube for NMR acquisition.

SMILES | solubility in water (Solubility in water) | quantity transferred into the water phase ([1]; CDCl3/acetone-d6 (6:1) versus D2O, equal volumes) | transfer to the water phase ([1]; after hydrolysis with 0.25 M NaOH in D2O, CDCl3/acetone-d6 6:1)
COCCOCCOC(=O)/C=C\C(=O)OCCOCCOC [B] | higher than that of the alkyne A | about 10 % of the total | –
O=C(O)CCC(=O)O [succinic acid] | – | – | All the succinic acid was transferred to the water phase
